Data from BindingDB's records for doi:10.1021/bi401014k (Texas A&M University, 2013).
pKi: −log10 of the molar value.

Tests used:
Experiment in all cases: ANS Fluorescence Displacement Assay
[1] = molecular target: T1, Fatty acid-binding protein, liver (Homo sapiens, UniProt P07148)
T1 sequence (P07148 whole entry): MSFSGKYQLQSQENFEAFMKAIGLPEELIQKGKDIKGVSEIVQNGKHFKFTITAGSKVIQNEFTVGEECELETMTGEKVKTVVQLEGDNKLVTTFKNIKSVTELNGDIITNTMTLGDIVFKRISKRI
Description: (§1) A solution of the L-FABP (500 nM) and ANS (35 µM) was titrated with phytanic acid (0-6.4 µM) or fenofibrate (0-6 µM for the rat L-FABP and 0-4 µM for the human L-FABP) or fenofibric acid (0-300 µM for the rat L-FABP and 0-48 µM for the human L-FABP).

[2] = molecular target: T2, Fatty acid-binding protein, liver (Rattus norvegicus, UniProt P02692)
T2 sequence (P02692 whole entry): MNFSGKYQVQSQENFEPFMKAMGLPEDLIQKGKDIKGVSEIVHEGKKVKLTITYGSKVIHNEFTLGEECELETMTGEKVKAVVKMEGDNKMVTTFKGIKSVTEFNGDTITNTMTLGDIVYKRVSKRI
Description: as §1

[3] = molecular target: Fatty acid-binding protein, liver [T94A] (Homo sapiens, UniProt P07148, T94A)
Description: as §1

Chain of Fatty acid-binding protein, liver [T94A] (P07148 whole entry T94A): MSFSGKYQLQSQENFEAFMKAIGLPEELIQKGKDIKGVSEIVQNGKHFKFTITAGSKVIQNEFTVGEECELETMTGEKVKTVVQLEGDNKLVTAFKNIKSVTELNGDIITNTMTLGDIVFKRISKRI

pKi [1]	pKi [2]	pKi [3]	SMILES
6.60	5.24	6.51	CC(C)(Oc1ccc(C(=O)c2ccc(Cl)cc2)cc1)C(=O)O [alpha-1081]
7.46	7.43	7.42	CC(C)CCC[C@H](C)CCC[C@H](C)CCC[C@@H](C)CC(=O)O [3,7,11,15-tetramethylhexadecanoic acid]
7.82	7.00	7.82	CC(C)OC(=O)C(C)(C)Oc1ccc(C(=O)c2ccc(Cl)cc2)cc1 [Finofibrate]
